Test results taken from the supplement of paper PMC10307832.

Legend:
Experiment in all cases: relative viability (nuclei count vs DMSO), 5 days (fraction); higher = more cells survive
Omipalisib + Dasatinib = compound: COc1ncc(-c2ccc3nccc(-c4ccnnc4)c3c2)cc1NS(=O)(=O)c1ccc(F)cc1F [Omipalisib] + Cc1nc(Nc2ncc(C(=O)Nc3c(C)cccc3Cl)s2)cc(N2CCN(CCO)CC2)n1 [Dasatinib] (partner 0.075 µM)
Procedure, shortened: (§1)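 Lung cancer cell lines in 1536-well plates got either a single drug or a fixed anchor-drug dose together with five library-drug doses (not always all listed) in √10 steps, by pin tool, on the day after seeding. Nuclei were counted after 5 days, and relative viability is the treated-to-vehicle ratio of nuclei counts. Values are medians of duplicate plates.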

Omipalisib + Pictilisib = compound: COc1ncc(-c2ccc3nccc(-c4ccnnc4)c3c2)cc1NS(=O)(=O)c1ccc(F)cc1F [Omipalisib] + CS(=O)(=O)N1CCN(Cc2cc3nc(-c4cccc5[nH]ncc45)nc(N4CCOCC4)c3s2)CC1 [Pictilisib] (partner 1 µM)
Procedure, shortened: as §1

Omipalisib + Trametinib = compound: COc1ncc(-c2ccc3nccc(-c4ccnnc4)c3c2)cc1NS(=O)(=O)c1ccc(F)cc1F [Omipalisib] + CC(=O)Nc1cccc(-n2c(=O)n(C3CC3)c(=O)c3c(Nc4ccc(I)cc4F)n(C)c(=O)c(C)c32)c1 [Trametinib] (partner 0.02 µM)
Procedure, shortened: as §1

Omipalisib + Palbociclib = compound: COc1ncc(-c2ccc3nccc(-c4ccnnc4)c3c2)cc1NS(=O)(=O)c1ccc(F)cc1F [Omipalisib] + CC(=O)c1c(C)c2cnc(Nc3ccc(N4CCNCC4)cn3)nc2n(C2CCCC2)c1=O [Palbociclib] (partner 0.5 µM)
Procedure, shortened: as §1

Omipalisib + Alpelisib = compound: COc1ncc(-c2ccc3nccc(-c4ccnnc4)c3c2)cc1NS(=O)(=O)c1ccc(F)cc1F [Omipalisib] + Cc1nc(NC(=O)N2CCC[C@H]2C(N)=O)sc1-c1ccnc(C(C)(C)C(F)(F)F)c1 [Alpelisib] (partner 2 µM)
Procedure, shortened: as §1

Omipalisib + Lapatinib = compound: COc1ncc(-c2ccc3nccc(-c4ccnnc4)c3c2)cc1NS(=O)(=O)c1ccc(F)cc1F [Omipalisib] + CS(=O)(=O)CCNCc1ccc(-c2ccc3ncnc(Nc4ccc(OCc5cccc(F)c5)c(Cl)c4)c3c2)o1 [Lapatinib] (partner 2 µM)
Procedure, shortened: as §1

Cell Line | relative viability (Omipalisib + Dasatinib; first compound 0.0003 µM) | relative viability (Omipalisib + Dasatinib; first compound 0.003 µM) | relative viability (Omipalisib + Dasatinib; first compound 0.03 µM) | relative viability (Omipalisib + Pictilisib; first compound 0.0003 µM) | relative viability (Omipalisib + Pictilisib; first compound 0.003 µM) | relative viability (Omipalisib + Pictilisib; first compound 0.03 µM) | relative viability (Omipalisib + Trametinib; first compound 0.0003 µM) | relative viability (Omipalisib + Trametinib; first compound 0.003 µM) | relative viability (Omipalisib + Trametinib; first compound 0.03 µM) | relative viability (Omipalisib + Palbociclib; first compound 0.0003 µM) | relative viability (Omipalisib + Palbociclib; first compound 0.003 µM) | relative viability (Omipalisib + Palbociclib; first compound 0.03 µM) | relative viability (Omipalisib + Alpelisib; first compound 0.0003 µM) | relative viability (Omipalisib + Alpelisib; first compound 0.003 µM) | relative viability (Omipalisib + Alpelisib; first compound 0.03 µM) | relative viability (Omipalisib + Lapatinib; first compound 0.0003 µM) | relative viability (Omipalisib + Lapatinib; first compound 0.003 µM) | relative viability (Omipalisib + Lapatinib; first compound 0.03 µM)
UMC-11 | 0.445 | 0.455 | 0.422 | 0.702 | 0.425 | 0.67 | 0.612 | 0.359 | 0.36 | 0.332 | 0.272 | 0.299 | 0.965 | 0.829 | 0.822 | 0.836 | 0.531 | 0.738
NCI-H1395 | 0.417 | 0.362 | 0.348 | 0.92 | 0.516 | 0.585 | 1.05 | 0.83 | 0.615 | 0.623 | 0.563 | 0.464 | 1 | 0.906 | 0.7 | 0.983 | 0.783 | 0.608
NCI-H1993 | 0.498 | 0.545 | 0.486 | 0.837 | 0.861 | 0.912 | 0.423 | 0.584 | 0.509 | 0.547 | 0.391 | 0.393 | 0.652 | 0.649 | 0.672 | 0.812 | 0.809 | 0.588
EPLC-272H | 0.387 | 0.239 | 0.113 | 0.403 | 0.377 | 0.298 | 0.275 | 0.256 | 0.14 | 0.311 | 0.306 | 0.225 | 0.883 | 0.794 | 0.477 | 0.908 | 0.535 | 0.562
NCI-H1975 | 0.33 | 0.249 | 0.113 | 0.321 | 0.277 | 0.193 | 0.331 | 0.207 | 0.165 | 0.669 | 0.248 | 0.173 | 0.695 | 0.518 | 0.253 | 0.801 | 0.613 | 0.22
NCI-H1650 | 0.326 | 0.237 | 0.189 | 0.401 | 0.556 | 0.564 | 0.438 | 0.633 | 0.512 | 0.274 | 0.29 | 0.261 | – | – | – | 0.771 | 0.771 | 0.576
ChaGo-K-1 | 0.657 | 0.583 | 0.473 | 0.635 | 0.652 | 0.809 | 0.818 | 0.747 | 0.666 | 0.853 | 0.843 | 0.708 | – | – | – | – | – | –
ABC-1 | 0.424 | 0.499 | 0.35 | 0.72 | 0.628 | 0.533 | – | – | – | 0.603 | 0.482 | 0.364 | 0.734 | 0.879 | 0.677 | 0.994 | 1.02 | 0.769
NCI-H441 | 0.494 | 0.37 | 0.339 | 0.428 | 0.354 | 0.351 | 0.474 | 0.232 | 0.184 | 0.213 | 0.19 | 0.139 | 0.585 | 0.588 | 0.441 | – | – | –
LCLC-103H | 0.467 | 0.326 | 0.167 | 0.615 | 0.665 | 0.531 | 0.602 | 0.524 | 0.401 | 0.481 | 0.479 | 0.356 | 0.96 | 0.889 | 0.643 | – | – | –
